Data reported in PubChem BioAssay (NCI).
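How tested: cells in 96-well plates exposed to compound for 48 hours at five concentrations. GI50 is the concentration that inhibits growth by half. TGI marks complete inhibition of growth.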

Columns and labels:
Assay in all cases: inhibition of tumour cell growth, NCI panel, 48 h
OVCAR-3 ovarian = system: OVCAR-3 ovarian
MCF7 breast = system: MCF7 breast
HCT-116 colon = system: HCT-116 colon
UACC-62 melanoma = system: UACC-62 melanoma
IGROV1 ovarian = system: IGROV1 ovarian
NCI-H460 lung = system: NCI-H460 lung
MALME-3M melanoma = system: MALME-3M melanoma
OVCAR-4 ovarian = system: OVCAR-4 ovarian
BT-549 breast = system: BT-549 breast
SK-OV-3 ovarian = system: SK-OV-3 ovarian
SNB-75 CNS = system: SNB-75 CNS
UACC-257 melanoma = system: UACC-257 melanoma
T-47D breast = system: T-47D breast
SW-620 colon = system: SW-620 colon
HT29 colon = system: HT29 colon
NCI-H226 lung = system: NCI-H226 lung
HCC-2998 colon = system: HCC-2998 colon
NCI-H522 lung = system: NCI-H522 lung
ACHN renal = system: ACHN renal
786-0 renal = system: 786-0 renal
SF-268 CNS = system: SF-268 CNS
SK-MEL-28 melanoma = system: SK-MEL-28 melanoma
HL-60(TB) leukemia = system: HL-60(TB) leukemia
RPMI-8226 leukemia = system: RPMI-8226 leukemia
MDA-MB-231 breast = system: MDA-MB-231 breast
HOP-62 NSCLC = system: HOP-62 NSCLC
CAKI-1 renal = system: CAKI-1 renal
OVCAR-8 ovarian = system: OVCAR-8 ovarian
M14 melanoma = system: M14 melanoma
RXF 393 renal = system: RXF 393 renal
NCI-H23 lung = system: NCI-H23 lung
SF-295 CNS = system: SF-295 CNS
SK-MEL-2 melanoma = system: SK-MEL-2 melanoma
UO-31 renal = system: UO-31 renal
SNB-19 CNS = system: SNB-19 CNS
LOX IMVI melanoma = system: LOX IMVI melanoma
SN12C renal = system: SN12C renal
TK-10 renal = system: TK-10 renal
DU-145 prostate = system: DU-145 prostate
OVCAR-5 ovarian = system: OVCAR-5 ovarian
HS 578T breast = system: HS 578T breast
MDA-MB-468 breast = system: MDA-MB-468 breast
SR leukemia = system: SR leukemia
SK-MEL-5 melanoma = system: SK-MEL-5 melanoma
SF-539 CNS = system: SF-539 CNS
A549 NSCLC = system: A549 NSCLC
MDA-MB-435 = system: MDA-MB-435
HCT-15 colon = system: HCT-15 colon
CCRF-CEM leukemia = system: CCRF-CEM leukemia
MOLT-4 leukemia = system: MOLT-4 leukemia
KM12 colon = system: KM12 colon
COLO 205 colon = system: COLO 205 colon
A498 renal = system: A498 renal
K-562 leukemia = system: K-562 leukemia

Cn1cc(-c2cc(N)n3nc(-c4c[nH]c5ccc(Br)cc45)cc3n2)c2cc(Br)cnc21
GI50 (OVCAR-3 ovarian): 1670 nM
TGI (OVCAR-3 ovarian): 3.13 µM
GI50 (MCF7 breast): 1800 nM
TGI (MCF7 breast): 3.63 µM
GI50 (HCT-116 colon): 1910 nM
TGI (HCT-116 colon): 4.25 µM
GI50 (UACC-62 melanoma): 1600 nM
TGI (UACC-62 melanoma): 3.07 µM
GI50 (IGROV1 ovarian): 1960 nM
TGI (IGROV1 ovarian): 4.11 µM
GI50 (NCI-H460 lung): 1960 nM
TGI (NCI-H460 lung): 4.03 µM
GI50 (MALME-3M melanoma): 1890 nM
TGI (MALME-3M melanoma): 3.52 µM
GI50 (OVCAR-4 ovarian): 1950 nM
TGI (OVCAR-4 ovarian): 3.93 µM
GI50 (BT-549 breast): 2190 nM
TGI (BT-549 breast): 4.36 µM
GI50 (SK-OV-3 ovarian): 2540 nM
TGI (SK-OV-3 ovarian): 7.27 µM
GI50 (SNB-75 CNS): 1460 nM
TGI (SNB-75 CNS): 3.24 µM
GI50 (UACC-257 melanoma): 2000 nM
TGI (UACC-257 melanoma): 4.31 µM
GI50 (T-47D breast): 1800 nM
TGI (T-47D breast): 4.33 µM
GI50 (SW-620 colon): 1880 nM
TGI (SW-620 colon): 3.74 µM
GI50 (HT29 colon): 1970 nM
TGI (HT29 colon): 3.84 µM
GI50 (NCI-H226 lung): 2510 nM
TGI (NCI-H226 lung): 7.34 µM
GI50 (HCC-2998 colon): 1760 nM
TGI (HCC-2998 colon): 3.24 µM
GI50 (NCI-H522 lung): 1700 nM
TGI (NCI-H522 lung): 3.56 µM
GI50 (ACHN renal): 1660 nM
TGI (ACHN renal): 3.12 µM
GI50 (786-0 renal): 1640 nM
TGI (786-0 renal): 3.13 µM
GI50 (SF-268 CNS): 2250 nM
TGI (SF-268 CNS): 5.71 µM
GI50 (SK-MEL-28 melanoma): 1820 nM
TGI (SK-MEL-28 melanoma): 3.64 µM
GI50 (HL-60(TB) leukemia): 1790 nM
TGI (HL-60(TB) leukemia): 4.33 µM
GI50 (RPMI-8226 leukemia): 2230 nM
TGI (RPMI-8226 leukemia): 7.8 µM
GI50 (MDA-MB-231 breast): 1780 nM
TGI (MDA-MB-231 breast): 3.54 µM
GI50 (HOP-62 NSCLC): 1680 nM
TGI (HOP-62 NSCLC): 3.34 µM
GI50 (CAKI-1 renal): 1490 nM
TGI (CAKI-1 renal): 3.77 µM
GI50 (OVCAR-8 ovarian): 2010 nM
TGI (OVCAR-8 ovarian): 4.22 µM
GI50 (M14 melanoma): 1690 nM
TGI (M14 melanoma): 3.55 µM
GI50 (RXF 393 renal): 1890 nM
TGI (RXF 393 renal): 3.69 µM
GI50 (NCI-H23 lung): 1760 nM
TGI (NCI-H23 lung): 3.6 µM
GI50 (SF-295 CNS): 1880 nM
TGI (SF-295 CNS): 4.29 µM
GI50 (SK-MEL-2 melanoma): 1790 nM
TGI (SK-MEL-2 melanoma): 3.74 µM
GI50 (UO-31 renal): 1620 nM
TGI (UO-31 renal): 3.36 µM
GI50 (SNB-19 CNS): 2150 nM
TGI (SNB-19 CNS): 4.76 µM
GI50 (LOX IMVI melanoma): 1700 nM
TGI (LOX IMVI melanoma): 3.29 µM
GI50 (SN12C renal): 1720 nM
TGI (SN12C renal): 3.36 µM
GI50 (TK-10 renal): 1780 nM
TGI (TK-10 renal): 3.99 µM
GI50 (DU-145 prostate): 1820 nM
TGI (DU-145 prostate): 3.53 µM
GI50 (OVCAR-5 ovarian): 2030 nM
TGI (OVCAR-5 ovarian): 4.44 µM
GI50 (HS 578T breast): 2290 nM
TGI (HS 578T breast): 5.36 µM
GI50 (MDA-MB-468 breast): 1360 nM
TGI (MDA-MB-468 breast): 2770 nM
GI50 (SR leukemia): 1930 nM
TGI (SR leukemia): 5.87 µM
GI50 (SK-MEL-5 melanoma): 2080 nM
TGI (SK-MEL-5 melanoma): 4.49 µM
GI50 (SF-539 CNS): 1640 nM
TGI (SF-539 CNS): 3.16 µM
GI50 (A549 NSCLC): 1840 nM
TGI (A549 NSCLC): 3.87 µM
GI50 (MDA-MB-435): 1710 nM
TGI (MDA-MB-435): 3.21 µM
GI50 (HCT-15 colon): 1690 nM
TGI (HCT-15 colon): 3.8 µM
GI50 (CCRF-CEM leukemia): 1610 nM
TGI (CCRF-CEM leukemia): 4.26 µM
GI50 (MOLT-4 leukemia): 2110 nM
TGI (MOLT-4 leukemia): 10.6 µM
GI50 (KM12 colon): 1590 nM
TGI (KM12 colon): 3.16 µM
GI50 (COLO 205 colon): 1820 nM
TGI (COLO 205 colon): 3.36 µM
GI50 (A498 renal): 1550 nM
TGI (A498 renal): 3.42 µM
GI50 (K-562 leukemia): 1890 nM
TGI (K-562 leukemia): 5.88 µM
